US20250114430A1, “MODIFIED PEPTIDOMIMETICS AND METHODS OF USE” (The University of North Carolina at Chapel Hill, priority 2021, published 2025)
No end group written: not given here.

What was measured:
αSMA = αSMA expression in fibroblasts after three days of TGFβ (confocal microscopy); format: cell-based
Method: After three days of TGFβ induced αSMA deposition, ELD607 was then added for 24 h at 10 μM and αSMA expression was assessed by confocal microscopy. Data are shown as mean+/−SEM and data were analyzed by ANOVA.
FIG. 39A-39B show ELD607 reduces αSMA deposition. After three days of TGFβ induced αSMA deposition, ELD607 or other compounds (pirfenidone, nintedanib, zigovractin, YM-58483) were then added as indicated for 24 h at 10 μM. […] Data are shown as mean+/−SEM and data were analyzed by ANOVA.
In vitro Methods: Fibroblasts were exposed to 10 nM TFGβ for 3-7 days as indicated. Then, ELD607 was added overnight. Fibroblasts were then fixed in paraformaldehyde, stained with primary a smooth muscle actin (αSMA) antibody, and imaged by confocal microscopy. Myofibroblasts were exposed to ELD607 without any TGFβ pre-treatment. In some cases, Western blotting was used to probe for αSMA.
Fibroblasts were exposed to TGFβ for three days and then exposed to vehicle or the indicated compounds. Cells were then fixed, stained for αSMA, and expression measured by confocal microscopy.

[1] = test system: mouse hepatitis virus (MHV-A59; a murine coronavirus); assay: Murine coronavirus MHV-A59 infection; format: in vivo
Method: Mice were dosed intranasally with 10^6 PFU MHIV-A59 followed by vehicle (saline) or 1.0 mg/kg of ELD607 per mouse 4 d p.i. BAL and lungs were collected 6 d p.i.
ELD607 normalized leukocyte composition and viral loads in the airways after murine coronavirus infection. Coronaviruses are emerging pathogens with severe outcomes in the human population. Mice were infected with 10^6 PFU mouse hepatitis virus (MHV-A59; a murine coronavirus) intranasally. The mice were then dosed with 1.0 mg/kg ELD607 or vehicle intranasally 4 days p.i. and then 2 days after dosing with ELD607 (6 days p.i.), mice were sacrificed to collect BAL and lung homogenates.

HEK293T cells = assay: Store operated Ca^2+ influx in HEK293T cells after incubation of peptide in ARDS BAL; format: cell-based
From the text: (§1) ELD607 is active in ARDS patient immune cells. Pulmonary neutrophilic inflammation and increased lung neutrophil elastase levels are common in ARDS patient lungs. We therefore evaluated whether ELD607 remained stable in BAL samples patients with ARDS caused by bacterial pneumonia. […] (FIG. 27, panel A).

[2] = target: T1, human neutrophil elastase (Homo sapiens, UniProt P08246); format: in vitro ADME
T1 sequence (P08246 30-267): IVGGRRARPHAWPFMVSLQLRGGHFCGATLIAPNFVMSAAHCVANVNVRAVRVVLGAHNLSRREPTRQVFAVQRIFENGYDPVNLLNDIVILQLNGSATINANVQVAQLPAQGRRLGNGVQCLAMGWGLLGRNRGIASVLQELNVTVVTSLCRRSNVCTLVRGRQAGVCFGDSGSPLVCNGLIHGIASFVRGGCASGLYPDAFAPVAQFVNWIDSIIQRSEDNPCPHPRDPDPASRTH
Method: Peptides were exposed to NE over time, and the reaction was stopped by addition of sivelestat. HPLC was then performed in order to determine peptide stability. N=3-4 replicates per time point.
HEK293T cells were plated and incubated for 2 hours with Fluo-4 plus or minus ELD peptides, with fluorescent images taken every 30 seconds for 2-6 minutes at excitation/emission wavelengths of 488/530 nm. […] Candidate peptides ELD604, 607, 601, and 100 were tested for resistance against protease degradation, wherein the peptides were incubated with neutrophil elastase, treated with the elastase inhibitor sivelestat at various timepoints to halt ongoing reactions, and then analyzed by HPLC (FIG. 9).
Endogenous Orai1/store operated Ca^2+ influx have been extensively studied in HEK293T cells, so this cell type was used to understand ELD607-Orai1 interactions. […] Thapsigargin is a SERCA pump inhibitor that prevents uptake of cytosolic Ca^2+ into the endoplasmic reticulum. Thapsigargin is commonly used to stimulate Orai1/store operated Ca^2+ influx. […] Dynamic light scattering (DLS) was used to evaluate binding of ELD607 to peptides of Orai1 extracellular loops. […] Thus, it was concluded that ELD607 interacts with Orai1.

NFAT = assay: NFAT-GFP relocation to the nucleus in HEK293T cells after stimulation of SOCE; format: cell-based; settings: thapsigargin
From the text: (§2) To determine whether ELD607 internalized Orai1, total internal reflection fluorescence (TIRF) microscopy was used to measure Orai1 in the plasma membrane. […] However, ELD607 reduced Orai1 plasma membrane expression by ˜50% (FIG. 26, panels A-B). […] We expressed NFAT-GFP in HEK293T cells and evaluated the ability of ELD607 to attenuate NFAT relocation to the nucleus after stimulation of SOCE by confocal microscopy. ELD607 reduced the percentage of NFAT in the nucleus by greater than 50% (FIG. 26, panels C-D).

[3] = test system: E. coli lipopolysaccharide (LPS); assay: E. coli LPS acute respiratory distress syndrome (ARDS) model; format: in vivo, mice; settings: 3 mg/kg LPS
Method: FIG. 34 panels B-D show lung injury score (FIG. 34 panel B), % weight loss (FIG. 34 panel C), and % BAL neutrophils (FIG. 34 […]) in relation to FIG. 34 panel A. Lung injury scoring system taken from Aeffner et al. Mouse Models of Acute Respiratory Distress Syndrome: A Review of Analytical Approaches, Pathologic Features, and Common Measurements. 2015 Tox Pathol.
ELD607 reduces inflammation in an acute respiratory distress syndrome (ARDS) model. Mice were intratracheally to 3 mg/kg E. coli lipopolysaccharide (LPS). 0.5 mg/kg ELD607 was instilled intranasally 1 or 6 h later. As a control, 3 mg/kg dexamethasone was given intranasally.

Orai1 = Orai1 (Homo sapiens, UniProt Q96D31); assay: TIRF microscopy of Orai1 in the plasma membrane; format: cell-based; parameters: Endogenous Orai1/store operated Ca^2+ influx have been extensively studied in HEK293T cells; endogenous in cells; host or cells: HEK293T; settings: Orai1-YFP, 3 h
From the text: as §2

[4] = format: in vitro ADME, human
From the text: as §1

[5] = 1.0 mg/kg intranasal 4 days p.i., read 6 days p.i.

Orai1, sequence (Q96D31 whole entry): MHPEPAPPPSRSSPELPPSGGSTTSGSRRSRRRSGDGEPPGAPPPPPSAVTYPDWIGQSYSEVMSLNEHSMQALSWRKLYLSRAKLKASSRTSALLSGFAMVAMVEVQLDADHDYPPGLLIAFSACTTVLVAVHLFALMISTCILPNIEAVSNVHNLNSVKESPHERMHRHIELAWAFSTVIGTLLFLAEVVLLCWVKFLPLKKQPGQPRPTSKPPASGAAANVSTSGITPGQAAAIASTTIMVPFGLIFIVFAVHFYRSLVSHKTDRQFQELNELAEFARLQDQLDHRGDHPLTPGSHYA

With VHDIVNMLIRG [ELD607, VHDIVNMLIRG] the “reduction in αSMA versus pirfenidone, nintedanib, zigrocractin and YM-58483” value (αSMA; 10 μM, 24 h) was “significantly greater reduction in αSMA than all other compounds tested”, the “αSMA expression, dose dependence” value (αSMA; TGFβ three days, then ELD607 24 h) was “dose-dependently reduced αSMA expression” and the “lung lymphocyte levels (B cells and T cells)” value [1, 5] was “significantly reduced lung lymphocyte levels”. For the same sequence, the “lung monocyte and macrophage levels” value [1, 5] was “normalized lung monocyte and macrophage levels”, the “viral loads in the lungs and BAL” value ([1]; one dose 1.0 mg/kg) was “significantly reduced” and the “inhibition of store operated Ca^2+ influx after incubation in ARDS BAL” value (HEK293T cells) was “did not prevent ELD607 from inhibiting store operated Ca^2+ influx”. For the same sequence, the “stability against neutrophil elastase” value [2] was “significant increase in stability”, the “stability relative to a6 after exposure to human neutrophil elastase” value [2] was “four times more stable” and the “reduction of the percentage of NFAT in the nucleus” value (NFAT) was “greater than 50%”. For the same sequence, the BAL neutrophilia ([3]; 0.5 mg/kg ELD607 intranasally) was “attenuated BAL neutrophilia”, the weight loss ([3]; 0.5 mg/kg ELD607 intranasally) was “reduced weight loss” and the “lung damage (lung injury score)” value ([3]; 0.5 mg/kg ELD607 intranasally 1 or 6 h later) was “significantly reduced lung damage caused by LPS”. For the same sequence, the “reduction of Orai1 plasma membrane expression” value (Orai1) was roughly 50% and the “stability in ARDS BAL” value [4] was “remained stable over 8 h”.
